The structures appear in SMILES notation. Where a SMILES comes first, the peptide text is derived from it. [ ]: non-standard residue; d: D form. Orn = NCCC[CH](N)C(=O)O

The logD is the decadic logarithm of the distribution of all forms, ionised or not, between an organic phase and buffer at a given pH. A higher logD goes with higher lipophilicity.

A short description of the first data set: method code SF-AS, from DOI: 10.1002/jps.2600830720, PMID: 7965659. The conditions noted are these: pH 2.0.
With `CC[C@H](C)[C@H](NC(=O)[C@H](CC(=O)O)NC(C)=O)C(=O)N[C@@H](Cc1ccccc1)C(N)=O`, the logD amounted to 0.61. Consider `CC(=O)N[C@@H](CC(C)C)C(=O)N[C@@H](CCC(=O)O)C(=O)N[C@@H](Cc1ccccc1)C(N)=O`, for which the logD was 0.48. The same measure, in the same setting: the result for `CCC(C)C(NC(=O)C(CC(C)C)NC(C)=O)C(=O)NC(CCC(=O)O)C(N)=O` (stereo not drawn) (Ac-Leu-Ile-Glu-NH2; configuration not given here) reads 0.07. On to `CC(=O)NC(Cc1ccccc1)C(=O)NC(CCC(=O)O)C(=O)NC(Cc1ccccc1)C(N)=O` (stereo not drawn) (Ac-Phe-Glu-Phe-NH2; configuration not given here), for which the logD came out at 0.65. On to `CCC(C)C(NC(C)=O)C(=O)NC(CC(C)C)C(=O)NC(CC(=O)O)C(N)=O` (stereo not drawn) (Ac-Ile-Leu-Asp-NH2; configuration not given here), for which the logD is -0.04. The same measure, in the same setting: in the case of `CC(=O)N[C@@H](CC(=O)O)C(=O)N[C@@H](Cc1ccccc1)C(=O)N[C@@H](CC(C)C)C(N)=O` it was 0.4. Turning to `CC(=O)N[C@@H](CC(C)C)C(=O)N[C@@H](CC(=O)O)C(=O)N[C@@H](CC(C)C)C(N)=O`, the logD is 0.16. On the same count and under the same terms, the result for `CC(=O)N[C@@H](Cc1ccccc1)C(=O)N[C@@H](CC(=O)O)C(=O)N[C@@H](CC(C)C)C(N)=O` reads 0.39.

As for `CC(=O)N[C@@H](CCC(=O)O)C(=O)N[C@@H](Cc1ccccc1)C(=O)N[C@@H](CC(C)C)C(N)=O`, the logD was determined as 0.32. On the same count and under the same terms, in the case of `CC[C@H](C)[C@H](NC(=O)[C@H](CCC(=O)O)NC(C)=O)C(=O)N[C@@H](Cc1ccccc1)C(N)=O` (Ac-Glu-Ile-Phe-NH2) it was 0.43.

Staying with this data set, now noted: pH 7.0.
As for `CSCC[C@H](NC(C)=O)C(=O)N[C@@H](Cc1ccccc1)C(N)=O`, the logD stood at 0.42.

`CSCC[C@H](NC(=O)[C@H](C)NC(C)=O)C(=O)N[C@H](C(N)=O)C(C)C` had a logD of -0.63. Take `CC[C@H](C)[C@H](NC(C)=O)C(=O)N[C@@H](C)C(=O)N[C@H](C(N)=O)C(C)C`: the logD is -0.21. Turning to `CSCC[C@H](NC(C)=O)C(=O)N[C@H](C(N)=O)C(C)C`, the logD is -0.28. On the same count and under the same terms, in the case of `CC[C@H](C)[C@H](NC(C)=O)C(=O)N[C@@H](CCSC)C(=O)N[C@@H](Cc1ccccc1)C(N)=O` (Ac-Ile-Met-Phe-NH2) it was 1.28.

Still in this data set, the particulars now being: pH 10.0.
As for `CC(=O)NC(Cc1ccccc1)C(=O)NC(Cc1c[nH]cn1)C(=O)NC(CC(C)C)C(N)=O` (stereo not drawn) (Ac-Phe-His-Leu-NH2; configuration not given here), the pH-dependent lipophilicity (logD) turned out to be 0.64. Take `CC(=O)NCC(=O)N[C@@H](Cc1ccccc1)C(=O)N[C@@H](Cc1c[nH]cn1)C(N)=O`: the logD was -0.92.

The compound `CC[C@H](C)[C@H](NC(=O)[C@H](CCCN)NC(C)=O)C(=O)N[C@H](C(N)=O)C(C)C` returned a logD of -0.43. Consider `CCC(C)C(NC(=O)C(Cc1c[nH]cn1)NC(C)=O)C(=O)NC(Cc1ccccc1)C(N)=O` (stereo not drawn) (Ac-His-Ile-Phe-NH2; configuration not given here), for which the logD was found to be 0.44.

As to `CC[C@H](C)[C@H](NC(C)=O)C(=O)N[C@@H](Cc1c[nH]cn1)C(=O)N[C@H](C(N)=O)C(C)C`, the logD is -0.24. Same read-out and setting: in the case of `CC(=O)NC(CCCN)C(=O)NC(Cc1ccccc1)C(N)=O` (stereo unspecified) it was -0.41.

`CC(=O)NC(Cc1c[nH]c2ccccc12)C(=O)NC(Cc1cnc[nH]1)C(=O)NC(C(N)=O)C(C)C` (stereo not drawn) (Ac-Trp-His-Val-NH2; configuration not given here) returned a logD of 0.31. `CC(=O)NC(CCCN)C(=O)NC(CC(C)C)C(N)=O` (stereo unspecified) (Ac-[Orn]-Leu-NH2; configuration not given here) displayed a logD of -0.71. On the same count and under the same terms, the result for `CC(=O)NC(Cc1ccccc1)C(=O)NC(Cc1c[nH]c2ccccc12)C(=O)NC(Cc1cnc[nH]1)C(N)=O` (stereo not drawn) (Ac-Phe-Trp-His-NH2; configuration not given here) reads 1; that for `CC(=O)NC(CC(C)C)C(=O)NC(CCCN)C(=O)NC(Cc1ccccc1)C(N)=O` (stereo unspecified) (Ac-Leu-[Orn]-Phe-NH2; configuration not given here), 0.53.

Take `CC(=O)NC(CCCN)C(=O)NC(Cc1ccccc1)C(=O)NC(CC(C)C)C(N)=O` (stereo not drawn) (Ac-[Orn]-Phe-Leu-NH2; configuration not given here): the logD was 0.54.
